Measured values reported in patent US20200371122A1, “BIOMARKER FOR SENESCENT CELLS” (Buck Institute for Research on Aging, priority 2017, published 2020).

Assays:
SASP factors = test: qPCR of SASP and PTGS mRNAs in non-senescent cells treated with eicosanoids; type: cell-based, human; settings: 10 μM, for PGJ2 and 15d-PGJ2 most factors except VEGF and PDGF
Procedure: RNA was extracted from cells or tissues using commercially available kits (Isolate II—Bioline for cells; Direct-zol—Zymo for tissues) according to the manufacturer's instructions. cDNA synthesis was performed using a High Capacity cDNA Reverse Transcription Kit (Thermo Fisher) according to the manufacturer's instructions. Quantitative PCR was performed on a LightCycler 480 II (Roche) using primers and probes designed for the Universal Probe Library. Primers and probes used for human transcripts were ACTB: 5′-CCAACCGCGAGAAGATGA (SEQ ID NO:1), 5′-TCCATCACGATGCCAGTG (SEQ ID NO:2), Probe #64; TUBA: 5′-cttcgtctccgccatcag (SEQ ID NO:3), 5′-ttgccaatctggacacca (SEQ ID NO:4), Probe #58; ALOX5: 5′-[…] (SEQ ID NO:5), 5′-[…] (SEQ ID NO:6), Probe #64; ALOX5AP: 5′-ggtctgcggggctacttt (SEQ ID NO:7), 5′-[…] (SEQ ID NO:8), Probe #18; ALOX12: 5′-[…] (SEQ ID NO:9), 5′-agccaggtcgtcaggag (SEQ ID NO:10), Probe #32; ALOX15: 5′-[…] (SEQ ID NO:11), 5′-[…] (SEQ ID NO:12), Probe #76; ALOX15B: 5′-[…] (SEQ ID NO:13), 5′-actgggaggcgaagaagg (SEQ ID NO:14), Probe #51; AKR1C1: 5′-catgcctgtcctgggattt (SEQ ID NO:15), 5′-[…] (SEQ ID NO:16), Probe #49; AKR1C2: 5′-ctatgcgcctgcagaggt (SEQ ID NO:17), 5′-[…] (SEQ ID NO:18), Probe #31; AKR1C3: 5′-[…] (SEQ ID NO:19), 5′-[…] (SEQ ID NO:20), Probe #78; CYSLTR2: 5′-[…] (SEQ ID NO:21), 5′-[…] (SEQ ID NO:22), Probe #18; DPEP1: 5′-gacgtcctgaggctggtg (SEQ ID NO:23), 5′-[…] (SEQ ID NO:24), Probe #9 (SEQ ID NO:25), ELOVL2: 5′-[…] (SEQ ID NO:26), 5′-[…] (SEQ ID NO:27), Probe #53; ELOVL4: 5′-catttggcccatggattc (SEQ ID NO:28), 5′-[…] (SEQ ID NO:29), Probe #31; ELOVL5: 5′-cccttccatgcgtccata (SEQ ID NO:30), 5′-[…] (SEQ ID NO:31), Probe #31; EPHX2: 5′-ttctgctggacaccctgaa (SEQ ID NO:32), 5′-[…] (SEQ ID NO:33), Probe #45; GPX4: 5′-ttcccgtgtaaccagttcg (SEQ ID NO:34), 5′-[…] (SEQ ID NO:35), Probe #36; LTA4H: 5′-ctgctctcacggtccagtc (SEQ ID NO:36), 5′-[…] (SEQ ID NO:37), Probe #64; LTBR2: 5′-[…] (SEQ ID NO:38), 5′-[…] (SEQ ID NO:39), Probe #33; LTC4S: 5′-[…] (SEQ ID NO:40), 5′-[…] (SEQ ID NO:41), Probe #18; PTGDS: 5′-[…] (SEQ ID NO:42), 5′-[…] […]

[1] = system: bleomycin-induced fibrosis; settings: administration; Kida 2016, Genovese 2005; cited from earlier work

Compound: CCCCC/C=C/C=C1/C(=O)C=C[C@@H]1C/C=C\CCCC(=O)O [15d-PGJ2]
- SASP factor mRNAs (SASP factors): strongly induced
- bleomycin-induced fibrosis [1]: attenuate
